Measurements as given in patent US20150297606A1, “Tricyclic Lactams for Use in the Protection of Hematopoietic Stem and Progenitor Cells Against Ionizing Radiation” (G1 THERAPEUTICS, INC., priority 2014, published 2015).

Columns and labels:
CDK4/CyclinD1 = CDK4/CyclinD1 (Homo sapiens, UniProt P11802); test: CDK4/cyclinD1 kinase assay (Nanosyn, Caliper microfluidic); assay type: biochemical; details: 12-point dose-response, ATP 200 μM (Km), 3 hr; read-out: Inhibition of CDK kinases: Cdk4/CycD1
Experimental: (§1) Selected compounds disclosed herein were tested in CDK4/cyclinD1, CDK6/CycD3, CDK2/CycA, CDK2/cyclinE, CDK5/p25, CDK5/p35, CDK7/CycH/MAT1, and CDK9/CycT kinase assays by Nanosyn (Santa Clara, Calif.) to determine their inhibitory effect on these CDKs. The assays were performed using microfluidic kinase detection technology (Caliper Assay Platform). The compounds were tested in 12-point dose-response format in singlicate at Km for ATP. Phosphoacceptor substrate peptide concentration used was 1.25 μM for all assays (except […] was used for the CKD7/CycH/MAT1 assay and Staurosporine was used as the reference compound for all assays. Specifics of each assay are as described below:
CDK4/CyclinD1: Enzyme concentration: 1 nM; ATP concentration: 200 μM; Incubation time: 3 hr.

CDK7/CycH/MAT1 = CDK7/CycH/MAT1 (Homo sapiens, UniProt P50613); test: CDK7/CycH/MAT1 kinase assay (Nanosyn, Caliper microfluidic); assay type: biochemical; details: 12-point dose-response, ATP 50 μM (Km), 3 hr; read-out: Inhibition of CDK kinases: Cdk7/CycH/MAT1
Sequence of CDK7/CycH/MAT1 (P50613 whole entry, species assumed): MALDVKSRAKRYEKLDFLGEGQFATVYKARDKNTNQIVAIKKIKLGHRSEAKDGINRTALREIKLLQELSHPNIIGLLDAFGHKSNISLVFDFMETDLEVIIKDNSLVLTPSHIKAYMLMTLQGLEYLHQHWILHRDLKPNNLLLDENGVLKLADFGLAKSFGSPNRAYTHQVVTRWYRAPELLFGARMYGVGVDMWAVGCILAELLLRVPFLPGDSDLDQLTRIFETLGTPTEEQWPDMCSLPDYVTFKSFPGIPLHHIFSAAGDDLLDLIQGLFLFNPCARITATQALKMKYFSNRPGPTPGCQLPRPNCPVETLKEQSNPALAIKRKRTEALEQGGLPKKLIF
Sequence of CDK7/CycH/MAT1 (P51946 whole entry partner, species assumed): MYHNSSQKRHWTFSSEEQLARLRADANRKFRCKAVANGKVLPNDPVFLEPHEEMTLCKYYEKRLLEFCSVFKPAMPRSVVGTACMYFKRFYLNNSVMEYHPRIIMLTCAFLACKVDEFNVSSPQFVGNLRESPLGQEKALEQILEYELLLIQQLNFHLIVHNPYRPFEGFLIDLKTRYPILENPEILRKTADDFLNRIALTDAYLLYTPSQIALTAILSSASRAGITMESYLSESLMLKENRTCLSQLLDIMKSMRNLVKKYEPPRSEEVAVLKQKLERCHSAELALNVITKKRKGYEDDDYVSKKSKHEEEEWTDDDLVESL
Sequence of CDK7/CycH/MAT1 (P51948 whole entry partner, species assumed): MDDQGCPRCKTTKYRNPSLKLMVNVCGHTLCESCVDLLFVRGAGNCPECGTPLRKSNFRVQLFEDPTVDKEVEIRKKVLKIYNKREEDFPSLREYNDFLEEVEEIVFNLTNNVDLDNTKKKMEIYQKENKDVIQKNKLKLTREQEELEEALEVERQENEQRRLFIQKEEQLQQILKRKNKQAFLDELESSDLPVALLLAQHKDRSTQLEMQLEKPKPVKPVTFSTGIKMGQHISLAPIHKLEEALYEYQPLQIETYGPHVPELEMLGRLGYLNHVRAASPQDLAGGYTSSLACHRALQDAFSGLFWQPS
Experimental: as §1
CDK7/CycH/MAT1: Enzyme concentration: 5 nM; ATP concentration: 50 μM; Incubation time: 3 hr.

CDK2/CyclinE = CDK2/CyclinE (Homo sapiens, UniProt P24941); test: CDK2/cyclinE kinase assay (Nanosyn, Caliper microfluidic); assay type: biochemical; details: read-out: Inhibition of CDK kinases: Cdk2/CycE
Experimental: as §1
CDK2/CyclinE: Enzyme concentration: 0.2 nM; ATP concentration: 100 μM; Incubation time: 3 hr.

CDK5/p35 = CDK5/p35 (Homo sapiens, UniProt Q00535); test: CDK5/p35 kinase assay (Nanosyn, Caliper microfluidic); assay type: biochemical; details: 12-point dose-response, ATP 20 μM (Km), 3 hr; read-out: Inhibition of CDK kinases: Cdk5/p35
Sequence of CDK5/p35 (Q00535 whole entry, species assumed): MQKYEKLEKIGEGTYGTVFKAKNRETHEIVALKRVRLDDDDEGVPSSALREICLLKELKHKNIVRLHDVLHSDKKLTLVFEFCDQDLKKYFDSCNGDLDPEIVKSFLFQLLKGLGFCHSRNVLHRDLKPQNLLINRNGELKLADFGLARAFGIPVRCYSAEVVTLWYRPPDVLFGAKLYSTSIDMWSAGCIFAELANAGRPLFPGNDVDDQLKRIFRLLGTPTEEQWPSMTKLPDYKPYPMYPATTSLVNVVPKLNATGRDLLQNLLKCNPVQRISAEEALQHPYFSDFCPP
Sequence of CDK5/p35 (Q15078 whole entry partner, species assumed): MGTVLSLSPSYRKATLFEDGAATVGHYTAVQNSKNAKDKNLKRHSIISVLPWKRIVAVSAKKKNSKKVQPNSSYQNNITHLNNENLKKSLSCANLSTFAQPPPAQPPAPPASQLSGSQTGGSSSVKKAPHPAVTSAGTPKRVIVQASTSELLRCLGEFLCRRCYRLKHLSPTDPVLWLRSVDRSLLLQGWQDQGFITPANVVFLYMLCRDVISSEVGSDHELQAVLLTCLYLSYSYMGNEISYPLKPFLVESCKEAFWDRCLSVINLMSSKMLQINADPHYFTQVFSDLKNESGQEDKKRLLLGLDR
Experimental: as §1
CDK5/p35: Enzyme concentration: 0.07 nM; ATP concentration: 20 μM; Incubation time: 3 hr.

CDK5/p25 = CDK5/p25 (Homo sapiens, UniProt Q00535); test: CDK5/p25 kinase assay (Nanosyn, Caliper microfluidic); assay type: biochemical; details: 12-point dose-response, ATP 20 μM (Km), 3 hr; read-out: Inhibition of CDK kinases: Cdk5/p25
Sequence of CDK5/p25 (Q00535 whole entry, species assumed): as the sequence (Q00535 whole entry, species assumed) above
Sequence of CDK5/p25 (Q15078 99-307 partner limits assumed, species assumed): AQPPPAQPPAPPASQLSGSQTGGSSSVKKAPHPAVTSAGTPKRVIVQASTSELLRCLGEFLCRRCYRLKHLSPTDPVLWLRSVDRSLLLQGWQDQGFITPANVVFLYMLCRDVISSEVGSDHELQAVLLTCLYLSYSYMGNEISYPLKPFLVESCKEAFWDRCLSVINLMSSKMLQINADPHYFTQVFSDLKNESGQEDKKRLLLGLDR
Experimental: as §1
CDK5/p25: Enzyme concentration: 0.1 nM; ATP concentration: 20 μM; Incubation time: 3 hr.

CDK9/CycT = CDK9/CycT (Homo sapiens, UniProt P50750); test: CDK9/CycT kinase assay (Nanosyn, Caliper microfluidic); assay type: biochemical; details: read-out: Inhibition of CDK kinases: Cdk9/Cyc T
Sequence of CDK9/CycT (P50750 whole entry, species assumed): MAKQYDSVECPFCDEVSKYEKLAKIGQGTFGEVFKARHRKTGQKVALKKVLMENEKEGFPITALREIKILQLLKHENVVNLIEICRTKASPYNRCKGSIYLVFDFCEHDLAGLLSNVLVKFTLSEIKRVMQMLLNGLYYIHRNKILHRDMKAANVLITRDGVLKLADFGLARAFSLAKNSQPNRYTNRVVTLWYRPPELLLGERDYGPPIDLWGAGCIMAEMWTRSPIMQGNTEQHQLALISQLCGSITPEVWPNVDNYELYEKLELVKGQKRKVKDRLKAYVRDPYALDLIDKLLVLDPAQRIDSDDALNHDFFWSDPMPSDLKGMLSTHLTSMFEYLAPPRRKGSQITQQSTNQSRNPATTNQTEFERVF
Sequence of CDK9/CycT (O60563 whole entry partner, species assumed): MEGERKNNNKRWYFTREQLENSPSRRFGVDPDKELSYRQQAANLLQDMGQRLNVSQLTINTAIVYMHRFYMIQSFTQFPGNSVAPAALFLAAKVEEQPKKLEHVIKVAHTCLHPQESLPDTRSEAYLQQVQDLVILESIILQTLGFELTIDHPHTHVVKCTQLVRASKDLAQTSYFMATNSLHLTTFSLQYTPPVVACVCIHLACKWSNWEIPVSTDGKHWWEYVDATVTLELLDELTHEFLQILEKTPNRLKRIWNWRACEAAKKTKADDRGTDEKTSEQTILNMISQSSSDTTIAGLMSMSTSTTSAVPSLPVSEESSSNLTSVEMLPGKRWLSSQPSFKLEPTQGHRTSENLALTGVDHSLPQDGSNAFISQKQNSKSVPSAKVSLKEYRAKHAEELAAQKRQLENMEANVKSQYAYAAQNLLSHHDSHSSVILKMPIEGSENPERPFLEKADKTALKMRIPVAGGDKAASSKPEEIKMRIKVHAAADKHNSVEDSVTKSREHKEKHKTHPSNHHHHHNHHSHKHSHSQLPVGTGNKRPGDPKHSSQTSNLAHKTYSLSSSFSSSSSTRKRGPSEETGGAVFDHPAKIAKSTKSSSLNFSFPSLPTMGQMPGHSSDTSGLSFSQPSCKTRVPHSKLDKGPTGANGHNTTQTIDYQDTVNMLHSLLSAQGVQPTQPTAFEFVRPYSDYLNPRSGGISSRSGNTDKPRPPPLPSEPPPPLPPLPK
Experimental: as §1
CDK9/CycT: Enzyme concentration: 5 nM; ATP concentration: 10 μM; Incubation time: 17 hr.

CDK6/CyclinD3 = CDK6/CyclinD3 (Homo sapiens, UniProt Q00534); test: CDK6/CycD3 kinase assay (Nanosyn, Caliper microfluidic); assay type: biochemical; details: 12-point dose-response, ATP 300 μM (Km), 3 hr; read-out: Inhibition of CDK kinases: Cdk6/CycD3
Sequence of CDK6/CyclinD3 (Q00534 whole entry, species assumed): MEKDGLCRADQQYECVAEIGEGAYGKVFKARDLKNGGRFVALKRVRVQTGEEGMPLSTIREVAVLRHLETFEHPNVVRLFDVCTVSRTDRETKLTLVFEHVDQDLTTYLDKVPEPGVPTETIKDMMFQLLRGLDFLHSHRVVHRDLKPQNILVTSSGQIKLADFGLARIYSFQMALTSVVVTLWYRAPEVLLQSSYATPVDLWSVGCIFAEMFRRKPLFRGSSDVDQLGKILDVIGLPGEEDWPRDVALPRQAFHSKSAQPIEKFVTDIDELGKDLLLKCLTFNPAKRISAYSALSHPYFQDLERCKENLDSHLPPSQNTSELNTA
Sequence of CDK6/CyclinD3 (P30281 whole entry partner, species assumed): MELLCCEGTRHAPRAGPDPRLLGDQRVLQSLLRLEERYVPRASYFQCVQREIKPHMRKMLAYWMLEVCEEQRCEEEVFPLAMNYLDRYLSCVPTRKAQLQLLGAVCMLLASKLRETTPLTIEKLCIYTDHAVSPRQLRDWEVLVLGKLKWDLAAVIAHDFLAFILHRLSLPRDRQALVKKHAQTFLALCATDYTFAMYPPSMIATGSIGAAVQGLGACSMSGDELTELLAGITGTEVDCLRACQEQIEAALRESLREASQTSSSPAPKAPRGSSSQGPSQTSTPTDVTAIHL
Experimental: as §1
CDK6/CyclinD3: Enzyme concentration: 10 nM; ATP concentration: 300 μM; Incubation time: 3 hr.

CDK2/CyclinA = CDK2/CyclinA (Homo sapiens, UniProt P24941); test: CDK2/CycA kinase assay (Nanosyn, Caliper microfluidic); assay type: biochemical; details: 12-point dose-response, ATP 50 μM (Km), 3 hr; read-out: Inhibition of CDK kinases: Cdk2/CycA
Experimental: as §1
CDK2/CyclinA: Enzyme concentration: 0.2 nM; ATP concentration: 50 μM; Incubation time: 3 hr.

[1] = system: CDK4/6-dependent cell lines; details: cited from earlier work
[2] = Grade 3/4 neutropenia and leukopenia, clinical trial; cited from earlier work

Sequence of CDK4/CyclinD1 (P11802 whole entry, species assumed): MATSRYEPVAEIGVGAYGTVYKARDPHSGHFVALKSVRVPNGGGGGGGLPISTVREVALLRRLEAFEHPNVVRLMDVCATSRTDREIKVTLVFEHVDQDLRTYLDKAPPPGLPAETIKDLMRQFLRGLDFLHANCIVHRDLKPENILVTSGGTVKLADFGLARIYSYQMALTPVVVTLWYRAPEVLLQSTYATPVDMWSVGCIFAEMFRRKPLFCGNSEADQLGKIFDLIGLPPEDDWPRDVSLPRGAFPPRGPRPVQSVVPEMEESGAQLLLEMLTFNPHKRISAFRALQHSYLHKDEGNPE
Sequence of CDK4/CyclinD1 (P24385 whole entry partner, species assumed): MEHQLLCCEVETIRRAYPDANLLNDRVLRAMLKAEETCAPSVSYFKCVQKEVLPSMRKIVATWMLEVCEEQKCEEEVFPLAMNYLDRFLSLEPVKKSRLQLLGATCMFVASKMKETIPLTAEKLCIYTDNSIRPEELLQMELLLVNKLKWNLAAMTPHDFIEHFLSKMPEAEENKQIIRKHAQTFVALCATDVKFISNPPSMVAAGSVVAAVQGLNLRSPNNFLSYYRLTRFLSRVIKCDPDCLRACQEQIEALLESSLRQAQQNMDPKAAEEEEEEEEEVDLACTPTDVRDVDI

Row | Compound | IC50 (CDK4/CyclinD1) [µM] | IC50 (CDK7/CycH/MAT1) [µM] | IC50 (CDK2/CyclinE) [µM] | IC50 (CDK5/p35) [µM] | IC50 (CDK5/p25) [µM] | IC50 (CDK9/CycT) [µM] | IC50 (CDK6/CyclinD3) [µM] | IC50 (CDK2/CyclinA) [µM] | IR protective characteristics [1] | patients requiring a dose interruption [2] [%] | patients requiring a dose reduction [2] [%]
1 | CN1CCN(c2ccc(Nc3ncc4c(n3)N3C(CC4=O)C(=O)NCC34CCCCC4)nc2)CC1 (centres unmarked) [AAAA] | > 100 | > 100 | > 100 | > 100 | > 100 | > 100 | > 100 | > 100 |  |  | 
2 | CN1CCN(c2ccc(Nc3ncc4c(n3)N3C(CC4)C(=O)NCC34CCCCC4)nc2)CC1 (centres unmarked) [BBBB] | 10 to 100 | > 100 | > 100 | > 100 | > 100 | > 100 | 10 to 100 | 10 to 100 |  |  | 
3 | CN1CCN(c2ccc(Nc3ncc4c(n3)N3C(CC4=O)C(=O)NCC34CCCC4)nc2)CC1 (centres unmarked) [CCCC] | > 100 | > 100 | > 100 | > 100 | > 100 | > 100 | > 100 | > 100 |  |  | 
4 | O=C1NC(=O)c2c1c1c3ccccc3[nH]c1c1[nH]c3cc(Br)ccc3c21 [Compound 2BrIC, 2-bromo-12,13-dihydro-5H-indolo[2,3-a]pyrrolo[3,4]carbazole-5,6-dione] |  |  |  |  |  |  |  |  | exhibited IR protective characteristics |  | 
5 | CN1CCN(c2ccc(Nc3ncc4c(n3)N3CCNC(=O)C3CC4=O)nc2)CC1 (centres unmarked) [GGGG] | 10 to 100 | > 100 | > 100 | > 100 | > 100 | > 100 | 10 to 100 | > 100 |  |  | 
6 | CC(=O)c1c(C)c2cnc(Nc3ccc(N4CCNCC4)cn3)nc2n(C2CCCC2)c1=O [PD0332991, 6-acetyl-8-cyclopentyl-5-methyl-2-(5-piperazin-1-yl-pyridin-2-ylammino)-8H-pyrido-[2,3-d]-pyrimidin-7-one] |  |  |  |  |  |  |  |  | exhibited IR protective characteristics | 71 | 35
7 | CN1CCN(c2ccc(Nc3ncc4c(n3)N3C(CC4=O)C(=O)NCC3(C)C)nc2)CC1 (centres unmarked) [YYY] | < 10 |  | > 100 | > 100 | > 100 | > 100 | 10 to 100 | > 100 |  |  | 
8 | CN1CCN(c2ccc(Nc3ncc4c(n3)N3C(CC4)C(=O)NCC3(C)C)nc2)CC1 (centres unmarked) [ZZZ] | > 100 |  | > 100 | > 100 | > 100 | > 100 | > 100 | > 100 |  |  | 
